# Laboratory results as given in PubChem BioAssay (NCI).
# “And” between values parts separate entries of the source, which are not always exact repeats. Equal values may be shown once.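 96-well plates; 48 h exposure; 5 concentrations. Endpoints by linear interpolation between flanking doses. Not reached: highest tested concentration assigned. Abbreviation: GI50, concentration required for 50% inhibition of growth. At the TGI there is no net growth.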
# What was measured:
# Assay in all cases: DTP human tumour cell line panel, 48 h
# MDA-MB-435 = tested on: MDA-MB-435
# SF-268 CNS = tested on: SF-268 CNS
# OVCAR-8 ovarian = tested on: OVCAR-8 ovarian
# EKVX NSCLC = tested on: EKVX NSCLC
# PC-3 prostate = tested on: PC-3 prostate
# MALME-3M melanoma = tested on: MALME-3M melanoma
# UACC-62 melanoma = tested on: UACC-62 melanoma
# DU-145 prostate = tested on: DU-145 prostate
# MCF7 breast = tested on: MCF7 breast
# SW-620 colon = tested on: SW-620 colon
# MOLT-4 leukemia = tested on: MOLT-4 leukemia
# 786-0 renal = tested on: 786-0 renal
# CAKI-1 renal = tested on: CAKI-1 renal
# U251 CNS = tested on: U251 CNS
# SN12C renal = tested on: SN12C renal
# HS 578T breast = tested on: HS 578T breast
# SR leukemia = tested on: SR leukemia
# A498 renal = tested on: A498 renal
# NCI-H522 lung = tested on: NCI-H522 lung
# HL-60(TB) leukemia = tested on: HL-60(TB) leukemia
# RPMI-8226 leukemia = tested on: RPMI-8226 leukemia
# SNB-75 CNS = tested on: SNB-75 CNS
# HCC-2998 colon = tested on: HCC-2998 colon
# SK-MEL-2 melanoma = tested on: SK-MEL-2 melanoma
# SF-295 CNS = tested on: SF-295 CNS
# HT29 colon = tested on: HT29 colon
# MDA-MB-231 breast = tested on: MDA-MB-231 breast
# SF-539 CNS = tested on: SF-539 CNS
# NCI-H23 lung = tested on: NCI-H23 lung
# RXF 393 renal = tested on: RXF 393 renal
# HCT-116 colon = tested on: HCT-116 colon
# UACC-257 melanoma = tested on: UACC-257 melanoma
# OVCAR-4 ovarian = tested on: OVCAR-4 ovarian
# CCRF-CEM leukemia = tested on: CCRF-CEM leukemia
# NCI/ADR-RES ovarian = tested on: NCI/ADR-RES ovarian
# A549 NSCLC = tested on: A549 NSCLC
# HOP-92 NSCLC = tested on: HOP-92 NSCLC
# BT-549 breast = tested on: BT-549 breast
# SK-MEL-28 melanoma = tested on: SK-MEL-28 melanoma
# UO-31 renal = tested on: UO-31 renal
# OVCAR-3 ovarian = tested on: OVCAR-3 ovarian
# LOX IMVI melanoma = tested on: LOX IMVI melanoma
# NCI-H226 lung = tested on: NCI-H226 lung
# HOP-62 NSCLC = tested on: HOP-62 NSCLC
# IGROV1 ovarian = tested on: IGROV1 ovarian
# M14 melanoma = tested on: M14 melanoma
# ACHN renal = tested on: ACHN renal
# HCT-15 colon = tested on: HCT-15 colon
# SK-MEL-5 melanoma = tested on: SK-MEL-5 melanoma
# KM12 colon = tested on: KM12 colon
# OVCAR-5 ovarian = tested on: OVCAR-5 ovarian
# K-562 leukemia = tested on: K-562 leukemia
# SK-OV-3 ovarian = tested on: SK-OV-3 ovarian
# SNB-19 CNS = tested on: SNB-19 CNS
# T-47D breast = tested on: T-47D breast
# NCI-H460 lung = tested on: NCI-H460 lung
# COLO 205 colon = tested on: COLO 205 colon
# TK-10 renal = tested on: TK-10 renal
smiles,measurement,setting,value
CCN(CC)CCCC(CNc1ccnc2cc(Cl)ccc12)c1ccc(Cl)cc1 (stereo unspecified),GI50,MDA-MB-435,1190 nM and 204 nM
same,TGI,MDA-MB-435,2550 nM and 462 nM
same,GI50,SF-268 CNS,1560 nM and 1710 nM
same,TGI,SF-268 CNS,3310 nM and 4550 nM
same,GI50,OVCAR-8 ovarian,2610 nM and 1570 nM
same,TGI,OVCAR-8 ovarian,7610 nM and 3990 nM
same,GI50,EKVX NSCLC,2110 nM and 1670 nM
same,TGI,EKVX NSCLC,6030 nM and 4110 nM
same,GI50,PC-3 prostate,3510 nM and 2450 nM
same,TGI,PC-3 prostate,13200 nM and 10200 nM
same,GI50,MALME-3M melanoma,1410 nM and 1250 nM
same,TGI,MALME-3M melanoma,3020 nM and 2720 nM
same,GI50,UACC-62 melanoma,1900 nM and 1860 nM
same,TGI,UACC-62 melanoma,3520 nM and 3500 nM
same,GI50,DU-145 prostate,3840 nM and 4190 nM
same,TGI,DU-145 prostate,15500 nM and 19000 nM
same,GI50,MCF7 breast,1310 nM and 1240 nM
same,TGI,MCF7 breast,3150 nM and 2710 nM
same,GI50,SW-620 colon,1430 nM and 1550 nM
same,TGI,SW-620 colon,3020 nM and 3350 nM
same,GI50,MOLT-4 leukemia,1560 nM and 1240 nM
same,TGI,MOLT-4 leukemia,4910 nM and 4220 nM
same,GI50,786-0 renal,1430 nM and 1570 nM
same,TGI,786-0 renal,2850 nM and 2970 nM
same,GI50,CAKI-1 renal,1480 nM and 547 nM
same,TGI,CAKI-1 renal,3200 nM and 1910 nM
same,GI50,U251 CNS,1540 nM and 950 nM
same,TGI,U251 CNS,3010 nM and 2480 nM
same,GI50,SN12C renal,1960 nM and 1920 nM
same,TGI,SN12C renal,4780 nM and 4300 nM
same,GI50,HS 578T breast,1760 nM and 1970 nM
same,TGI,HS 578T breast,3820 nM and 4460 nM
same,GI50,SR leukemia,337 nM and 307 nM
same,TGI,SR leukemia,1380 nM and 1090 nM
same,GI50,A498 renal,1830 nM and 1350 nM
same,TGI,A498 renal,3330 nM and 2800 nM
same,GI50,NCI-H522 lung,1690 nM and 859 nM
same,TGI,NCI-H522 lung,3510 nM and 2550 nM
same,GI50,HL-60(TB) leukemia,1750 nM and 1520 nM
same,TGI,HL-60(TB) leukemia,3790 nM and 3620 nM
same,GI50,RPMI-8226 leukemia,1360 nM and 590 nM
same,TGI,RPMI-8226 leukemia,4790 nM and 2690 nM
same,GI50,SNB-75 CNS,1580 nM and 1400 nM
same,TGI,SNB-75 CNS,3180 nM and 2850 nM
same,GI50,HCC-2998 colon,1420 nM and 834 nM
same,TGI,HCC-2998 colon,2960 nM and 2210 nM
same,GI50,SK-MEL-2 melanoma,2100 nM and 1590 nM
same,TGI,SK-MEL-2 melanoma,4070 nM and 3090 nM
same,GI50,SF-295 CNS,1790 nM and 1350 nM
same,TGI,SF-295 CNS,3540 nM and 2760 nM
same,GI50,HT29 colon,484 nM and 304 nM
same,TGI,HT29 colon,2350 nM and 1280 nM
same,GI50,MDA-MB-231 breast,1410 nM and 1540 nM
same,TGI,MDA-MB-231 breast,3210 nM and 3320 nM
same,GI50,SF-539 CNS,1230 nM and 1520 nM
same,TGI,SF-539 CNS,2670 nM and 3070 nM
same,GI50,NCI-H23 lung,1870 nM and 2010 nM
same,TGI,NCI-H23 lung,4420 nM and 5930 nM
same,GI50,RXF 393 renal,1400 nM and 1030 nM
same,TGI,RXF 393 renal,3010 nM and 2510 nM
same,GI50,HCT-116 colon,1540 nM and 925 nM
same,TGI,HCT-116 colon,6120 nM and 2360 nM
same,GI50,UACC-257 melanoma,1970 nM and 583 nM
same,TGI,UACC-257 melanoma,3740 nM and 1610 nM
same,GI50,OVCAR-4 ovarian,1070 nM and 1040 nM
same,TGI,OVCAR-4 ovarian,4280 nM and 3360 nM
same,GI50,CCRF-CEM leukemia,1710 nM and 1200 nM
same,TGI,CCRF-CEM leukemia,5170 nM and 4600 nM
same,GI50,NCI/ADR-RES ovarian,2020 nM and 2130 nM
same,TGI,NCI/ADR-RES ovarian,5140 nM and 5870 nM
same,GI50,A549 NSCLC,2060 nM and 1630 nM
same,TGI,A549 NSCLC,4200 nM and 3420 nM
same,GI50,HOP-92 NSCLC,1440 nM and 1160 nM
same,TGI,HOP-92 NSCLC,3120 nM and 2780 nM
same,GI50,BT-549 breast,1790 nM and 1750 nM
same,TGI,BT-549 breast,3790 nM and 3380 nM
same,GI50,SK-MEL-28 melanoma,1660 nM and 537 nM
same,TGI,SK-MEL-28 melanoma,3300 nM and 1090 nM
same,GI50,UO-31 renal,891 nM and 974 nM
same,TGI,UO-31 renal,2240 nM and 2310 nM
same,GI50,OVCAR-3 ovarian,2460 nM and 2380 nM
same,TGI,OVCAR-3 ovarian,7730 nM and 9830 nM
same,GI50,LOX IMVI melanoma,764 nM and 353 nM
same,TGI,LOX IMVI melanoma,2130 nM and 1360 nM
same,GI50,NCI-H226 lung,2140 nM and 2550 nM
same,TGI,NCI-H226 lung,5810 nM and 8830 nM
same,GI50,HOP-62 NSCLC,1830 nM and 1640 nM
same,TGI,HOP-62 NSCLC,4230 nM and 3730 nM
same,GI50,IGROV1 ovarian,2420 nM and 1600 nM
same,TGI,IGROV1 ovarian,7470 nM and 4550 nM
same,GI50,M14 melanoma,227 nM and 203 nM
same,TGI,M14 melanoma,612 nM and 405 nM
same,GI50,ACHN renal,1310 nM and 705 nM
same,TGI,ACHN renal,2890 nM and 2070 nM
same,GI50,HCT-15 colon,535 nM and 984 nM
same,TGI,HCT-15 colon,2100 nM and 2620 nM
same,GI50,SK-MEL-5 melanoma,1130 nM
same,TGI,SK-MEL-5 melanoma,2400 nM
same,GI50,KM12 colon,1770 nM and 1540 nM
same,TGI,KM12 colon,3520 nM and 4330 nM
same,GI50,OVCAR-5 ovarian,2530 nM and 2160 nM
same,TGI,OVCAR-5 ovarian,8250 nM and 6250 nM
same,GI50,K-562 leukemia,289 nM and 227 nM
same,TGI,K-562 leukemia,994 nM and 603 nM
same,GI50,SK-OV-3 ovarian,2000 nM and 1820 nM
same,TGI,SK-OV-3 ovarian,4040 nM and 3810 nM
same,GI50,SNB-19 CNS,1900 nM and 2730 nM
same,TGI,SNB-19 CNS,4170 nM and 6900 nM
same,GI50,T-47D breast,1640 nM and 2060 nM
same,TGI,T-47D breast,3420 nM and 4020 nM
same,GI50,NCI-H460 lung,1900 nM and 1740 nM
same,TGI,NCI-H460 lung,3950 nM and 3820 nM
same,GI50,COLO 205 colon,1380 nM and 212 nM
same,TGI,COLO 205 colon,2940 nM and 466 nM
same,GI50,TK-10 renal,1670 nM and 830 nM
same,TGI,TK-10 renal,3240 nM and 2080 nM
